The text below walks through data of PubChem BioAssay AID2060503 (Molecular Pharmacology Branch, DTP, NCI, 2025).

For orientation: viability, T/C means the ratio of treated to control. A word on the IC50: it is the concentration needed to halve the response being measured.

Several values for one entry are separate records, joined by “and”; a condition that tells them apart may be missing. Identical values can stand only once.

The test concerns 817829-284-R-J1-PDC complex spheroids, viability. Kind of test: Anticancer human tumor 817829-284-R-J1-PDC patient-derived colon adenocarcinoma cell line growth inhibition [GQUAD]. Particulars: for viability, T/C: stronger effect = lower value. From the text:
DNA G-quadruplex Stabilizer Agents in Combinations in Complex Spheroids
A high-throughput screen of multi-cell type tumor spheroids was designed to identify active combinations of DNA G-quadruplex stabilizer agents and targeted small molecules. Complex spheroids include a stromal component modeled by human endothelial cells (HUVEC) and fibroblasts modeled by human mesenchymal stem cells (MSCs). The concentration ranges selected for each drug and investigational agent were based upon clinically achievable concentrations if the clinical Cmax of the agent was known.
Compounds. The drugs and investigational agents: pidnarulex (CX-5461; NSC782164), APTO-253 (NSC789042), BRACO-19 (NSC847499), peposertib (NSC802822), ceralasertib (NSC780249), elimusertib (NSC800525), camonsertib (NSC841442), AZD-1390 (NSC803789), olaparib (NSC753686), talazoparib (NSC767125), ART-558 (NSC835418), sotorasib (NSC818433), MRTX-1133 (NSC836407), SN-38 (NSC673596), topotecan (NSC609699), etoposide (NSC141540), doxorubicin (NSC123127), gemcitabine (NSC613327), 5-fluorouracil (NSC19893), paclitaxel (NSC125973), vemurafenib (NSC761431), panobinostat (NSC761190), R-306465 (JNJ-16241199; NSC773264), adavosertib (NSC754352), TP-3654 (NSC805149), carboplatin (NSC241240), KSQ-4279 (NSC840948), and staurosporine (NSC755774) were obtained from the National Cancer Institute (NCI) Developmental Therapeutics Program Chemical Repository (34). The FDA-approved anticancer drug set is available from the NCI Developmental Therapeutics Program. […] The stock solutions were prepared in dimethyl sulfoxide (DMSO, Sigma-Aldrich, St. Louis, MO, cat. D2650) at 800-fold the tested concentration and stored at -70 degrees C prior to their use. All drugs and investigational agents were tested over a range starting from a high concentration at or near the clinical Cmax and decreasing in half-log increments. If the clinical Cmax for an agent had not been determined, the highest concentration tested was 10 microM.
2.3 Cell Culture. All cells were maintained in an incubator at 37 degrees C and 5% CO2 with 95% humidity. The PDC lines were cultured according to standard operating procedures established by the NCI PDMR. All PDCs were thawed and cultured in Matrigel-coated flasks prepared with a working solution of 1X Ham's F-12 nutrient mix, without supplementation (Invitrogen, cat. 11765054), 100 U/mL penicillin-streptomycin (Invitrogen, cat. 15140122), and 2.5% Matrigel (Corning Inc., cat. 354248) for the first three passages. The 857933-349-R-J2-PDC line was cultured in 6C/Colon 1B media, which includes advanced DMEM/F-12 (Thermo Fisher Scientific, cat. 12634028), 10 mM HEPES (Thermo Fisher Scientific, cat. 15630080), 1X GlutaMAX supplement (Thermo Fisher Scientific, cat. 35050061), 0.1 mg/mL primocin (InvivoGen, cat. ant-pm-2), 10% defined fetal bovine serum, heat inactivated (HyClone Laboratories Inc., cat. SH30070.03HI), 50% L-WRN conditioned media (ATCC, cat. CRL-3276), 1.25 mM N-Acetyl-L-cysteine (Sigma-Aldrich, cat. A9165), 10 mM nicotinamide (Sigma-Aldrich, cat. N0636), 1X B-27 supplement (Thermo Fisher Scientific, cat. 17504044), 1X N-2 supplement (Thermo Fisher Scientific, cat. 17502048), 10 microM Y-27632 dihydrochloride (Tocris Bioscience, cat. 1254), and 50 ng/mL human EGF recombinant protein (Thermo Fisher Scientific, cat. PHG0311). The 485176-168-R4-J1-PDC line was cultured in Panc media, which includes all 6C/Colon 1B media components plus 100 ng/mL human FGF-10 (Thermo Fisher Scientific, cat. 100-26), 500 nM SB-431542 (Selleckchem, cat. S1067), and gastrin (Tocris, cat. 3006).
[…]

Setting [1] is: curve of first compound, second compound 0.0316 µM.
Where [2] appears, read: curve of first compound, second compound 0.1 µM.
Where [3] appears, read: curve of first compound, second compound 0.316 µM.
Setting [4] is: curve of first compound, second compound 1 µM.
Setting [5] is: curve of first compound, second compound 3.16 µM.
[6] abbreviates: curve of first compound, second compound 10 µM.
The mark [7] stands for this setting: second compound 0.0316 µM, first compound 0.0316 µM.
Where [8] appears, read: second compound 0.0316 µM, first compound 0.1 µM.
Where [9] appears, read: second compound 0.0316 µM, first compound 0.316 µM.
Where [10] appears, read: second compound 0.0316 µM, first compound 1 µM.
Where [11] appears, read: second compound 0.0316 µM, first compound 3.16 µM.
Setting [12] is: second compound 0.0316 µM, first compound 10 µM.
Where [13] appears, read: second compound 0.1 µM, first compound 0.0316 µM.
The mark [14] stands for this setting: second compound 0.1 µM, first compound 0.1 µM.
Setting [15] is: second compound 0.1 µM, first compound 0.316 µM.
Where [16] appears, read: second compound 0.1 µM, first compound 1 µM.
The mark [17] stands for this setting: second compound 0.1 µM, first compound 3.16 µM.
Where [18] appears, read: second compound 0.1 µM, first compound 10 µM.
[19] abbreviates: second compound 0.316 µM, first compound 0.0316 µM.
[20] abbreviates: second compound 0.316 µM, first compound 0.1 µM.
The mark [21] stands for this setting: second compound 0.316 µM, first compound 0.316 µM.
[22] abbreviates: second compound 0.316 µM, first compound 1 µM.
Setting [23] is: second compound 0.316 µM, first compound 3.16 µM.
The mark [24] stands for this setting: second compound 0.316 µM, first compound 10 µM.
Setting [25] is: second compound 1 µM, first compound 0.0316 µM.
The mark [26] stands for this setting: second compound 1 µM, first compound 0.1 µM.
Where [27] appears, read: second compound 1 µM, first compound 0.316 µM.
The mark [28] stands for this setting: second compound 1 µM, first compound 1 µM.
Where [29] appears, read: second compound 1 µM, first compound 3.16 µM.
Where [30] appears, read: second compound 1 µM, first compound 10 µM.
The mark [31] stands for this setting: second compound 3.16 µM, first compound 0.0316 µM.
Where [32] appears, read: second compound 3.16 µM, first compound 0.1 µM.
[33] abbreviates: second compound 3.16 µM, first compound 0.316 µM.
Setting [34] is: second compound 3.16 µM, first compound 1 µM.
The mark [35] stands for this setting: second compound 3.16 µM, first compound 3.16 µM.
Setting [36] is: second compound 3.16 µM, first compound 10 µM.
Setting [37] is: second compound 10 µM, first compound 0.0316 µM.
[38] abbreviates: second compound 10 µM, first compound 0.1 µM.
Setting [39] is: second compound 10 µM, first compound 0.316 µM.
Where [40] appears, read: second compound 10 µM, first compound 1 µM.
Where [41] appears, read: second compound 10 µM, first compound 3.16 µM.
Where [42] appears, read: second compound 10 µM, first compound 10 µM.
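Note: spheroids exposed to agents for 7 days before readout.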
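Throughout, for viability, T/C: percent viability relative to DMSO vehicle control taken as 100%.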

As to `Cc1[nH]c2ccccc2c1CCNCc1ccc(/C=C/C(=O)NO)cc1`, the viability, T/C is, setting by setting: (compound 0.000999 µM) 110% and 93.9% and 106%; (compound 0.00316 µM) 101% and 100% and 86.5%; (compound 0.00999 µM) 127% and 124% and 113%; (compound 0.0316 µM) 73% and 78.2% and 52.8%; (compound 0.0999 µM) 3.77% and 5.53% and 6.09%; (compound 0.316 µM) 0.17% and 0.23% and 0.08%. Moreover, the half-inhibitory concentration (IC50) (curve of compound) was 45.8 nM and 48.8 nM and 33.7 nM.

Turning to `O=c1[nH]cc(F)c(=O)[nH]1`, the viability, T/C is 97.6% and 102% and 99.2% (compound 0.0316 µM); 94.3% and 91.8% and 102% (compound 0.1 µM); 127% and 111% and 106% (compound 0.316 µM); 59.1% and 63.2% and 70.3% (compound 1 µM); 39.4% (2×) and 42.5% (compound 3.16 µM); 30.5% and 32.8% and 30.7% (compound 10 µM). Besides, the IC50 (curve of compound) is 1540 nM and 1750 nM and 2140 nM.

Take `CC(C)(O)C1CCC(Nc2ccc3ncc(-c4cccc(C(F)(F)F)c4)n3n2)CC1` (centres undefined): the viability, T/C is, setting by setting: (compound 0.0316 µM) 99.8% and 97.4% and 104%; (compound 0.1 µM) 95.4% and 98.8% and 80.9%; (compound 0.316 µM) 106% and 104% and 101%; (compound 1 µM) 68.3% and 84.7% and 79%; (compound 3.16 µM) 50.6% and 46.8% and 19.7%; (compound 10 µM) 67.2% and 53% and 22.6%. For the same molecule, the half-inhibitory concentration (IC50) (curve of compound) was > 10000 nM and 1780 nM.

For `C=CCn1c(=O)c2cnc(Nc3ccc(N4CCN(C)CC4)cc3)nc2n1-c1cccc(C(C)(C)O)n1` + Cc1[nH]c2ccc(F)cc2c1-c1nc2c3cccnc3c3ncccc3c2[nH]1, the concentration for half-maximal inhibition (IC50) is, setting by setting: under setting [1], 220 nM; under setting [2], 240 nM; under setting [3], 259 nM; under setting [4], 221 nM; under setting [5], less than 31.6 nM; under setting [6], less than 31.6 nM. For the same molecule, the viability, T/C by setting is: under setting [7], 101%; under setting [8], 92.9%; under setting [9], 30.2%; under setting [10], 8.8%; under setting [11], 6.61%; under setting [12], 5.37%. The viability, T/C is 82.1% under setting [13]; 111% under setting [14]; 35.2% under setting [15]; 7.33% under setting [16]; 6.25% under setting [17]; 4.08% under setting [18]. The viability, T/C runs as follows: under setting [19], 97.2%; under setting [20], 109%; under setting [21], 38.9%; under setting [22], 8.37%; under setting [23], 6.05%; under setting [24], 4.81%. Besides, the viability, T/C runs as follows: under setting [25], 104%; under setting [26], 103%; under setting [27], 26.2%; under setting [28], 8.6%; under setting [29], 6.38%; under setting [30], 4.1%. For the same molecule, the viability, T/C was 46.1% under setting [31]; 30.2% under setting [32]; 8.17% under setting [33]; 5.38% under setting [34]; 4.83% under setting [35]; 4.49% under setting [36]. Also, the viability, T/C under setting [37] was 28.6%; the viability, T/C under setting [38] is 14.8%; the viability, T/C under setting [39] is 6.57%; the viability, T/C under setting [40] is 4.68%; the viability, T/C under setting [41] is 5.07%; the viability, T/C under setting [42] is 4.08%.

As for `CC(C)n1c(=O)n(C)c2cnc3cc(F)c(-c4ccc(OCCCN5CCCCC5)nc4)cc3c21`, the viability, T/C is, setting by setting: (compound 0.0316 µM) 106% and 107% and 100%; (compound 0.1 µM) 101% and 102% and 97.5%; (compound 0.316 µM) 95.1% and 105% and 102%; (compound 1 µM) 89.8% and 100% and 89.2%; (compound 3.16 µM) 104% and 113% and 101%; (compound 10 µM) 107% and 103% and 60.3%. In addition, the half-maximal inhibitory concentration (IC50) (curve of compound) was greater than 10000 nM.

Regarding `CC1COCCN1c1cc(C2(S(C)(=N)=O)CC2)nc(-c2ccnc3[nH]ccc23)n1` (centres undefined), the viability, T/C by setting is: (compound 0.0316 µM) 112% and 93.9% and 91.7%; (compound 0.1 µM) 89.1% and 102% and 105%; (compound 0.316 µM) 93.1% and 88.9% and 90%; (compound 1 µM) 24.1% and 27.1% and 31.6%; (compound 3.16 µM) 11% and 9.68% and 11.2%; (compound 10 µM) 8.31% and 9.22% and 9.36%. Also, where the note is “curve of compound”, the IC50 is 649 nM and 654 nM and 697 nM.

Take `O=c1[nH]cc(F)c(=O)[nH]1` + Cc1[nH]c2ccc(F)cc2c1-c1nc2c3cccnc3c3ncccc3c2[nH]1: the IC50 is, setting by setting: under setting [1], 1590 nM; under setting [2], 1940 nM; under setting [3], 1990 nM; under setting [4], 1880 nM; under setting [5], 684 nM; under setting [6], 234 nM. Further, the viability, T/C is 113% under setting [7]; 92.3% under setting [8]; 106% under setting [9]; 58.9% under setting [10]; 42.2% under setting [11]; 31.4% under setting [12]. The viability, T/C runs as follows: under setting [13], 86.8%; under setting [14], 101%; under setting [15], 115%; under setting [16], 68.9%; under setting [17], 40.5%; under setting [18], 31.5%. Further, the viability, T/C is, setting by setting: under setting [19], 91.1%; under setting [20], 113%; under setting [21], 137%; under setting [22], 69.2%; under setting [23], 40.3%; under setting [24], 33.8%. For the same molecule, the viability, T/C is 92.2% under setting [25]; 113% under setting [26]; 113% under setting [27]; 67.3% under setting [28]; 39.1% under setting [29]; 32.2% under setting [30]. Besides, the viability, T/C under setting [31] was 106%; the viability, T/C under setting [32] was 106%; the viability, T/C under setting [33] is 87.6%; the viability, T/C under setting [34] is 31.3%; the viability, T/C under setting [35] is 27.5%; the viability, T/C under setting [36] was 20.4%. Besides, the viability, T/C by setting is: under setting [37], 31.7%; under setting [38], 73.2%; under setting [39], 48.5%; under setting [40], 15.9%; under setting [41], 7.19%; under setting [42], 8.78%.
